# PubChem BioAssay (NCI)
#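 These data come from cells grown in 96-well plates and exposed to compound for 48 hours at five concentrations. The concentration for 50% growth inhibition is given as GI50. At the TGI there is no net growth.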
# Experiments:
# Assay in all cases: NCI-60 cell line screen, 48 h
# [1] = system: HL-60(TB) leukemia
# [2] = system: HCC-2998 colon
# [3] = system: NCI/ADR-RES ovarian
# [4] = system: HOP-62 NSCLC
# [5] = system: SF-539 CNS
# [6] = system: NCI-H226 lung
# [7] = system: BT-549 breast
# [8] = system: SF-268 CNS
# [9] = system: OVCAR-3 ovarian
# [10] = system: DU-145 prostate
# [11] = system: SN12C renal
# [12] = system: MDA-MB-231 breast
# [13] = system: OVCAR-8 ovarian
# [14] = system: NCI-H23 lung
# [15] = system: RXF 393 renal
# [16] = system: LOX IMVI melanoma
# [17] = system: SNB-19 CNS
# [18] = system: EKVX NSCLC
# [19] = system: CAKI-1 renal
# [20] = system: T-47D breast
# [21] = system: SK-OV-3 ovarian
# [22] = system: HCT-15 colon
# [23] = system: HT29 colon
# [24] = system: U251 CNS
# [25] = system: HCT-116 colon
# [26] = system: COLO 205 colon
# [27] = system: UACC-257 melanoma
# [28] = system: MCF7 breast
# [29] = system: NCI-H522 lung
# [30] = system: MDA-MB-435
# [31] = system: SNB-75 CNS
# [32] = system: NCI-H460 lung
# [33] = system: SK-MEL-28 melanoma
# [34] = system: SK-MEL-5 melanoma
# [35] = system: ACHN renal
# [36] = system: MALME-3M melanoma
# [37] = system: A498 renal
# [38] = system: UACC-62 melanoma
smiles,measurement,setting,value
O=C(CCCn1c(=O)c2sc3ccccc3c2n2nnc(-c3ccccc3)c12)NCCc1cnc[nH]1,GI50,[1],1.41 µM
same,TGI,[1],6.36 µM
same,GI50,[2],1.77 µM
same,TGI,[2],4.15 µM
same,GI50,[3],3.22 µM
same,TGI,[3],> 100 µM
same,GI50,[4],2.32 µM
same,TGI,[4],5.27 µM
same,GI50,[5],0.664 µM
same,TGI,[5],2.19 µM
same,GI50,[6],18.6 µM
same,TGI,[6],37.7 µM
same,GI50,[7],17.3 µM
same,TGI,[7],41.5 µM
same,GI50,[8],1.77 µM
same,TGI,[8],3.72 µM
same,GI50,[9],1.52 µM
same,TGI,[9],3.18 µM
same,GI50,[10],1.55 µM
same,TGI,[10],2.98 µM
same,GI50,[11],0.271 µM
same,TGI,[11],1.87 µM
same,GI50,[12],1.92 µM
same,TGI,[12],3.61 µM
same,GI50,[13],0.32 µM
same,TGI,[13],2.79 µM
same,GI50,[14],2.92 µM
same,TGI,[14],11.6 µM
same,GI50,[15],2.52 µM
same,TGI,[15],5.02 µM
same,GI50,[16],1.59 µM
same,TGI,[16],2.93 µM
same,GI50,[17],1.71 µM
same,TGI,[17],5.04 µM
same,GI50,[18],2.7 µM
same,TGI,[18],8.77 µM
same,GI50,[19],0.181 µM
same,TGI,[19],1.71 µM
same,GI50,[20],1.4 µM
same,TGI,[20],4.49 µM
same,GI50,[21],3.44 µM
same,TGI,[21],15.7 µM
same,GI50,[22],1.26 µM
same,TGI,[22],2.51 µM
same,GI50,[23],1.36 µM
same,TGI,[23],3.16 µM
same,GI50,[24],1.06 µM
same,TGI,[24],2.24 µM
same,GI50,[25],0.341 µM
same,TGI,[25],1.66 µM
same,GI50,[26],1.1 µM
same,TGI,[26],4.8 µM
same,GI50,[27],2.04 µM
same,TGI,[27],4.58 µM
same,GI50,[28],1.45 µM
same,TGI,[28],3.08 µM
same,GI50,[29],1.06 µM
same,TGI,[29],11.7 µM
same,GI50,[30],1.49 µM
same,TGI,[30],3.06 µM
same,GI50,[31],1.86 µM
same,TGI,[31],4.03 µM
same,GI50,[32],1.87 µM
same,TGI,[32],3.8 µM
same,GI50,[33],1.75 µM
same,TGI,[33],3.2 µM
same,GI50,[34],1.91 µM
same,TGI,[34],4.11 µM
same,GI50,[35],1.66 µM
same,TGI,[35],3.02 µM
same,GI50,[36],2.49 µM
same,TGI,[36],5.49 µM
same,GI50,[37],1.55 µM
same,TGI,[37],3 µM
same,GI50,[38],1.91 µM
same,TGI,[38],3.56 µM
